IC50 and remaining activity data for three compounds are collected here from publication PMC10528299, “Targeting FAK/PYK2 with SJP1602 for Anti-Tumor Activity in Triple-Negative Breast Cancer” (Current Issues in Molecular Biology, 2023).

Assay [1] deals with BT-549. As to the kind of experiment: 3D spheroid assay BT-549. To be noted: Homo sapiens, 96 h; BT-549, 4 days treatment; read-out: IC50 3D spheroid cell viability. Type of assay: cell-based. How it is done:
Breast cancer cell lines were cultured in medium with or without 2% Matrigel (Corning, NY, USA) for 3 days in each 96-well ultra-low attachment round plate to form a single spheroid at a density of 3 × 10^3 cells/well. SJP1602 was dissolved in DMSO and treated for 4 days at concentrations ranging from 200 nM to 20 μM. Cell viability was quantified according to the manufacturer’s instructions using a CellTiter-Glo 3D cell viability assay (Promega, Madison, WI, USA). Luminescence was measured using the Tecan Spark 10M.

For assay [2], the target named is T1, FGFR2(h) (Homo sapiens, UniProt P21802).
T1 construct: purchased Eurofins KinaseProfiler
The experiment in a line: Eurofins kinase profiling. The format is biochemical. The conditions noted are these: read-out: residual kinase activity FGFR2(h). How it is done: (§1) The kinase profiling analysis was performed at Eurofins (Poitiers, France). A total of 110 kinase assays were carried out according to Eurofins’ standard protocols. For protein kinase assays, the kinase activity was measured using Eurofins’ KinaseProfiler radiometric assay. In this assay, a panel of kinases was incubated with the test compound SJP1602 at a concentration of 1 µM, and the kinase activity was determined using radiolabeled phosphate as a substrate. Lipid and atypical kinase assays were conducted using Eurofins’ homogeneous time-resolved fluorescence assay. The same panel of kinases was incubated with SJP1602 at a concentration of 1 µM, and the activity of lipid and atypical kinases was measured using this assay.

Assay [3] addresses T2, cKit(D816H)(h) (Homo sapiens, UniProt P10721, D816H).
T2 construct: purchased Eurofins KinaseProfiler
As to the kind of experiment: Eurofins kinase profiling. The format is biochemical. The conditions noted are these: read-out: residual kinase activity cKit(D816H)(h). How it is done:
as §1

Assay [4] addresses T3, TrkA(h) (Homo sapiens, UniProt P04629).
T3 construct: purchased Eurofins KinaseProfiler
The experiment in a line: Eurofins kinase profiling. The format is biochemical. To be noted: read-out: residual kinase activity TrkA(h). How it is done: as §1

For assay [5], the target named is T4, Fes(h) (Homo sapiens, UniProt P07332).
T4 construct: purchased Eurofins KinaseProfiler
The experiment in a line: Eurofins kinase profiling. Type of assay: biochemical. To be noted: read-out: residual kinase activity Fes(h). How it is done: as §1

The target of assay [6] is T5, CK1γ3(h) (Homo sapiens, UniProt Q9Y6M4).
T5 construct: purchased Eurofins KinaseProfiler
The experiment in a line: Eurofins kinase profiling. The format is biochemical. The conditions noted are these: read-out: residual kinase activity CK1γ3(h). How it is done:
as §1

In assay [7] the target is T6, Fer(h) (Homo sapiens, UniProt P16591).
T6 construct: purchased Eurofins KinaseProfiler
As to the kind of experiment: Eurofins kinase profiling. Type of assay: biochemical. The conditions noted are these: read-out: residual kinase activity Fer(h). On the procedure: as §1

For assay [8], the target named is T7, ROCK-I(h) (Homo sapiens, UniProt Q13464).
T7 construct: purchased Eurofins KinaseProfiler
As to the kind of experiment: Eurofins kinase profiling. To be noted: read-out: residual kinase activity ROCK-I(h). Type of assay: biochemical. On the procedure: as §1

In assay [9] the target is T8, MST3(h) (Homo sapiens, UniProt Q9Y6E0).
T8 construct: purchased Eurofins KinaseProfiler
The experiment in a line: Eurofins kinase profiling. To be noted: read-out: residual kinase activity MST3(h). Type of assay: biochemical. On the procedure:
as §1

Assay [10] concerns the target T9, CDK2/cyclinA(h) (Homo sapiens, UniProt P24941).
T9 construct: purchased Eurofins KinaseProfiler
The experiment in a line: Eurofins kinase profiling. Type of assay: biochemical. To be noted: read-out: residual kinase activity CDK2/cyclinA(h). How it is done: as §1

For assay [11], the target named is T10, ATM(h) (Homo sapiens, UniProt Q13315).
T10 construct: purchased Eurofins KinaseProfiler
As to the kind of experiment: Eurofins kinase profiling. Type of assay: biochemical. The conditions noted are these: read-out: residual kinase activity ATM(h). On the procedure:
as §1

The target of assay [12] is T11, Ron(h) (Homo sapiens, UniProt Q04912).
T11 construct: purchased Eurofins KinaseProfiler
As to the kind of experiment: Eurofins kinase profiling. The format is biochemical. The conditions noted are these: read-out: residual kinase activity Ron(h). On the procedure:
as §1

Assay [13] concerns the target T12, Axl(h) (Homo sapiens, UniProt P30530).
T12 construct: purchased Eurofins KinaseProfiler
T12 sequence (P30530 26-894): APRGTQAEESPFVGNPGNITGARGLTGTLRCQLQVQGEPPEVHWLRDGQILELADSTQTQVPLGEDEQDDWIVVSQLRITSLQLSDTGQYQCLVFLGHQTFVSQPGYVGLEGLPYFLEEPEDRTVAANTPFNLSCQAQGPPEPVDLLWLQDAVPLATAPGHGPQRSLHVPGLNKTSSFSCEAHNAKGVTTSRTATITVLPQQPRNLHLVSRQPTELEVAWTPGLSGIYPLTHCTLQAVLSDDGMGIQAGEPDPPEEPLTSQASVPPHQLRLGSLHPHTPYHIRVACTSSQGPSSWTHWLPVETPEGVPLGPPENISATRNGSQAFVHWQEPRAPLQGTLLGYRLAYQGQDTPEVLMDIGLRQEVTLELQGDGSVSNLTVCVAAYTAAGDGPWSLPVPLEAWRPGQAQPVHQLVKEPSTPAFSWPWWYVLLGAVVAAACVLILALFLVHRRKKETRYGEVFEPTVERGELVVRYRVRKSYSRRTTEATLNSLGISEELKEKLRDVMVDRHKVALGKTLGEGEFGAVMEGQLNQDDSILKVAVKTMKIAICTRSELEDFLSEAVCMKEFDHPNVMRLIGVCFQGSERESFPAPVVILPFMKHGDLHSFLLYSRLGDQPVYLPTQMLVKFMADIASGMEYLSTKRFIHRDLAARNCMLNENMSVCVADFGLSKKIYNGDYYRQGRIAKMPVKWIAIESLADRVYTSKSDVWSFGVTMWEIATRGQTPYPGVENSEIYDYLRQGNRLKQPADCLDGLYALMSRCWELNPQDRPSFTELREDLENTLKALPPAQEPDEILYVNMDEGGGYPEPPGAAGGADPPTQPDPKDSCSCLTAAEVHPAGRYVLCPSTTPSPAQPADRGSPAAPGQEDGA
As to the kind of experiment: Eurofins kinase profiling. The format is biochemical. To be noted: read-out: residual kinase activity Axl(h). How it is done:
as §1

In assay [14] the target is T13, IGF-1R(h) (Homo sapiens, UniProt P08069).
T13 construct: purchased Eurofins KinaseProfiler
The experiment in a line: Eurofins kinase profiling. Type of assay: biochemical. The conditions noted are these: read-out: residual kinase activity IGF-1R(h). On the procedure: as §1

The target in assay [15] is T14, B-Raf(V599E)(h) (Homo sapiens, UniProt P15056, V600E).
T14 construct: purchased Eurofins KinaseProfiler
As to the kind of experiment: Eurofins kinase profiling. To be noted: read-out: residual kinase activity B-Raf(V599E)(h). The format is biochemical. How it is done:
as §1

In assay [16] the target is T15, EphA7(h) (Homo sapiens, UniProt Q15375).
T15 construct: purchased Eurofins KinaseProfiler
The experiment in a line: Eurofins kinase profiling. Type of assay: biochemical. To be noted: read-out: residual kinase activity EphA7(h). On the procedure:
as §1

For assay [17], the target named is T16, PDGFRα(D842V)(h) (Homo sapiens, UniProt P16234, D842V).
T16 construct: purchased Eurofins KinaseProfiler
As to the kind of experiment: Eurofins kinase profiling. The format is biochemical. The conditions noted are these: read-out: residual kinase activity PDGFRα(D842V)(h). How it is done: as §1

The target in assay [18] is T17, MEK1(h) (Homo sapiens, UniProt Q02750).
T17 construct: purchased Eurofins KinaseProfiler
As to the kind of experiment: Eurofins kinase profiling. Type of assay: biochemical. The conditions noted are these: read-out: residual kinase activity MEK1(h). On the procedure:
as §1

T10 sequence (Q13315 whole entry): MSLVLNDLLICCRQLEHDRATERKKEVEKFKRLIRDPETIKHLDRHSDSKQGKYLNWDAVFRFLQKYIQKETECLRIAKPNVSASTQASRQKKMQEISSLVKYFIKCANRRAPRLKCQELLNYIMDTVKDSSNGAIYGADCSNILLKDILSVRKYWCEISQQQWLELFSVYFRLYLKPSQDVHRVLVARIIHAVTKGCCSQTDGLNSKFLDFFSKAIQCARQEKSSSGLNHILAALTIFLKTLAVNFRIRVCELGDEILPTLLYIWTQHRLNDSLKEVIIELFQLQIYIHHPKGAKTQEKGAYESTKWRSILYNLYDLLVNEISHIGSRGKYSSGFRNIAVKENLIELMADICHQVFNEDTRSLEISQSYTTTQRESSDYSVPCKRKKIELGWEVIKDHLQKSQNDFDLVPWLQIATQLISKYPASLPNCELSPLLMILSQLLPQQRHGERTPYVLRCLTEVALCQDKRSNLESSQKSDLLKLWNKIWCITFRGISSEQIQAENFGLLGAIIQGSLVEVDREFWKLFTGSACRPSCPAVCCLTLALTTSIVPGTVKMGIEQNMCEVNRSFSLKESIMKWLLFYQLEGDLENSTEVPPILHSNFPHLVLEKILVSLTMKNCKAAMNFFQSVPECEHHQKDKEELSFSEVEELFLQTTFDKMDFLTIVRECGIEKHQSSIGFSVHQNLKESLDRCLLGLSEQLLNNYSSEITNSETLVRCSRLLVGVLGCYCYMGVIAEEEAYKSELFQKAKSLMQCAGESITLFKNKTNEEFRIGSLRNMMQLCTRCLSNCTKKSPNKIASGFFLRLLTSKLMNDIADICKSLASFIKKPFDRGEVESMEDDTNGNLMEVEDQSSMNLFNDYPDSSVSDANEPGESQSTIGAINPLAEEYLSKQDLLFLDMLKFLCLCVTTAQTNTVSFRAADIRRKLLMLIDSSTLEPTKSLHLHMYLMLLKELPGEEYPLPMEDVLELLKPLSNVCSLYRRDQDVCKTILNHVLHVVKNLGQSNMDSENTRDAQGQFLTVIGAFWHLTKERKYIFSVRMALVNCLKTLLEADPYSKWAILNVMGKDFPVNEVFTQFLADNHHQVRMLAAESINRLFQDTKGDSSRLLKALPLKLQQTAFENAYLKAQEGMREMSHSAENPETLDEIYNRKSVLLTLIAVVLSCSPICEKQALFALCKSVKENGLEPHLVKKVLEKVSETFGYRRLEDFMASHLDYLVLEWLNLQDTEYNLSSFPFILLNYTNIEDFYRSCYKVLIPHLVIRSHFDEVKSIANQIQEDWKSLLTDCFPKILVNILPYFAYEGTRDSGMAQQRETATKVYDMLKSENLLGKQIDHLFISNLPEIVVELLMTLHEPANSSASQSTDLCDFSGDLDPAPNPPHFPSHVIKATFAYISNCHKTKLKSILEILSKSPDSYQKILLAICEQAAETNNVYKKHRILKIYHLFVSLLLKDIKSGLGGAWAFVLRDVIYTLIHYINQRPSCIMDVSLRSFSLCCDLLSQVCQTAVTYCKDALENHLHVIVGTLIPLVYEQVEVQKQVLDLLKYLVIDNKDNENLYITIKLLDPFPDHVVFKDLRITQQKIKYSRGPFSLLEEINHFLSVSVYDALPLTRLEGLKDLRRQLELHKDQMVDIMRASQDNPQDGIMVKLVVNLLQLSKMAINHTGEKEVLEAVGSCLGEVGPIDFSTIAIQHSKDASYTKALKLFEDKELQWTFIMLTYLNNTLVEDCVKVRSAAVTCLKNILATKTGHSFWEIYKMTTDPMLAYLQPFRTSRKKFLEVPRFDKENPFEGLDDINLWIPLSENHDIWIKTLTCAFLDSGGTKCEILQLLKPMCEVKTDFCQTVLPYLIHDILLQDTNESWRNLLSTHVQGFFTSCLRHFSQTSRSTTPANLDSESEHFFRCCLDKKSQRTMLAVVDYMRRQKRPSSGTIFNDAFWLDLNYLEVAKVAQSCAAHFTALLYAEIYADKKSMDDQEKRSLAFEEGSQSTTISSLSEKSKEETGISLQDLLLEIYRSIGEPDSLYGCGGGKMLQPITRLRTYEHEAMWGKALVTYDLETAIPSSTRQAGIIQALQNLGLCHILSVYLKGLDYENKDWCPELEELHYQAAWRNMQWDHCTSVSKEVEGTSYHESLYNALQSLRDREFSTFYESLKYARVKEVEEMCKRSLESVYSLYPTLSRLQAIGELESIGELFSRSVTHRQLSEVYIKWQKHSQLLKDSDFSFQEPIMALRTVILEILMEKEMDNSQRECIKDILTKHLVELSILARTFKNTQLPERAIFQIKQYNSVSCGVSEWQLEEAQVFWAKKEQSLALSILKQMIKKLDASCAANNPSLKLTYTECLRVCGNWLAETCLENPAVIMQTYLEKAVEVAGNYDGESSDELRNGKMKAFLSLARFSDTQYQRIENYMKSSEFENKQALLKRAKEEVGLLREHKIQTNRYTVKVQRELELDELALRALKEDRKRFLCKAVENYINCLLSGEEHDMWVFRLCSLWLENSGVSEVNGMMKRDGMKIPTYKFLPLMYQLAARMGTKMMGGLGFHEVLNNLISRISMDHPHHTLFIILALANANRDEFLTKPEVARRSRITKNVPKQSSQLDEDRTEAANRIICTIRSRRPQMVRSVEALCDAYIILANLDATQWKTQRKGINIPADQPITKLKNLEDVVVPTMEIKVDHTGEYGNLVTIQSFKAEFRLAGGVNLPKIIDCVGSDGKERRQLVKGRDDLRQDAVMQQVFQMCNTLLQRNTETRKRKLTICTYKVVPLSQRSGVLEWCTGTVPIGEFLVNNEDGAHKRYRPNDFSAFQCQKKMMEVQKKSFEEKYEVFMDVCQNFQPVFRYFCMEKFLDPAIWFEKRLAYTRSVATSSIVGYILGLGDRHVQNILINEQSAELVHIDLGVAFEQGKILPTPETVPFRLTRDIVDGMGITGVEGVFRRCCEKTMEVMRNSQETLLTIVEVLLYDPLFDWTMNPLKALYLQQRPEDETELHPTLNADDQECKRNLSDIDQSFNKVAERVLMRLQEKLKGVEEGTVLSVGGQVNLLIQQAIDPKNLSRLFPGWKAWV
T7 sequence (Q13464 whole entry): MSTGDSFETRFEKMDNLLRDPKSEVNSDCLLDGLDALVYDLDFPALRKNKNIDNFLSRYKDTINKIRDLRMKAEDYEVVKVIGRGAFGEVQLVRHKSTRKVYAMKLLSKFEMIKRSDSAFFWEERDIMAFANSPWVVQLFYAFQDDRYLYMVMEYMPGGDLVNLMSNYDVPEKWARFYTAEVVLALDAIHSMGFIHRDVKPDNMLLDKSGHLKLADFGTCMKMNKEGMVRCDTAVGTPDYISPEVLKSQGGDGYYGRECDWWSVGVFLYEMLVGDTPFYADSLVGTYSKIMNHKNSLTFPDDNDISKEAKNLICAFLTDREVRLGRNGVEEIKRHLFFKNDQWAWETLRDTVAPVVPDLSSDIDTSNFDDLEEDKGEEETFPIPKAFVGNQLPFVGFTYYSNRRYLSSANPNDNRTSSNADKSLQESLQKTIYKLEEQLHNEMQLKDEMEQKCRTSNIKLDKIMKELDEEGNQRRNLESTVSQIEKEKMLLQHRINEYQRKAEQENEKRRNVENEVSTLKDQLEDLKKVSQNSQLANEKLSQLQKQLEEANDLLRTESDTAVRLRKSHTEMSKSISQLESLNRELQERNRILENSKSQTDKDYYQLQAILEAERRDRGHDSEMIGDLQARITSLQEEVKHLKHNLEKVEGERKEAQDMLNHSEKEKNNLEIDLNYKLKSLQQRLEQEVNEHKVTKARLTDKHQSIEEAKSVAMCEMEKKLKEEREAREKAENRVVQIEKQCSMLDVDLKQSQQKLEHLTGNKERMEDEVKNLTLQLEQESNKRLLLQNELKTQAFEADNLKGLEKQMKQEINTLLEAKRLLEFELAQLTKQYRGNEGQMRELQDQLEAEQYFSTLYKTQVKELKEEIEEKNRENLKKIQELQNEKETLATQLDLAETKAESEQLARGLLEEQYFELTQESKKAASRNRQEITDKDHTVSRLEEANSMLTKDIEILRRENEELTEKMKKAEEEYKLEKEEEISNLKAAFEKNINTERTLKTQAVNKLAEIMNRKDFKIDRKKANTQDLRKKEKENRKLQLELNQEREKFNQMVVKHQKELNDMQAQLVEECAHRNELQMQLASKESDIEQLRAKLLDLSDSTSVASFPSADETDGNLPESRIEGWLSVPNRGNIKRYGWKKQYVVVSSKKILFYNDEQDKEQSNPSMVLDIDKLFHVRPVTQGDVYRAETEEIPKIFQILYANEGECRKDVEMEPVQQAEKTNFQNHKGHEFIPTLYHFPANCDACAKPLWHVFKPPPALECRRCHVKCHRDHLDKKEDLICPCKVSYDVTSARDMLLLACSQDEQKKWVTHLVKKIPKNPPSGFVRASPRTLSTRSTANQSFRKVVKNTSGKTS
T5 sequence (Q9Y6M4 whole entry): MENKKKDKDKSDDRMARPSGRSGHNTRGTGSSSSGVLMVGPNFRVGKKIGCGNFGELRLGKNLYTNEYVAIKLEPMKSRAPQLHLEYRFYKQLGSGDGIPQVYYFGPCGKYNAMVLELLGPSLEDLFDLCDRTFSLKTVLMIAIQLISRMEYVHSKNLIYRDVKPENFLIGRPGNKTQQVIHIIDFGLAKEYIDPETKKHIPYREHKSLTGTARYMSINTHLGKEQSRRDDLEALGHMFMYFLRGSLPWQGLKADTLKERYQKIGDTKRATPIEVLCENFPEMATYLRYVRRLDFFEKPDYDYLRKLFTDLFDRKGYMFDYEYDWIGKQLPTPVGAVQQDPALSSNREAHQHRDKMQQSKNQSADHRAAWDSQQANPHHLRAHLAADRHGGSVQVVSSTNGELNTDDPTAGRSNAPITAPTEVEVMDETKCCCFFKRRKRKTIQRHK

Turning to `CNC(=O)c1cccc(C)c1Nc1nc(Nc2ccc(N3CCN(C4C5CC6CC4CC(O)(C6)C5)CC3)cc2OC)ncc1C(F)(F)F` (stereo not drawn) [SJP1602, 2-((2-((4-(4-((2s,5r)-5-hydroxyadamantan-2-yl)piperazin-1-yl)-2-methoxyphenyl)amino)-5-(trifluoromethyl)pyrimidin-4-yl)amino)-N,3-dimethylbenzamide], in [1], the IC50 came to 4.71 µM. For the same compound, the remaining activity at 1 µM in assay [2] was 90%; in assay [3], 124%; in assay [4] it was 109%; in assay [5] it was 54%; in [6], 88%; in assay [7], 68%. The remaining activity at 1 µM is 101% in assay [8]; 95% in [9]; 85% in [10]; 98% in assay [11]; 75% in [12]; 105% in assay [13]. For the same compound, the remaining activity at 1 µM in [14] turned out to be 116%; in assay [15], 105%; in assay [16], 103%; in [17], 141%; in assay [18], 98%.
`CNC(=O)c1ccc(Nc2ncc(C(F)(F)F)c(NCc3nccnc3N(C)S(C)(=O)=O)n2)cc1` [VS-6063, Defactinib]: in assay [1], the IC50 is more than 10 µM. Besides, the remaining activity at 1 µM in [2] came out at 46%; in assay [3], 94%; in [4] it was 2%; in assay [5], 7%; in assay [6] it was 84%; in assay [7], 31%. The remaining activity at 1 µM in assay [8] is 103%; in assay [9], 33%; in assay [10], 28%; in assay [11] it was 63%; in [12] it was 72%; in assay [13], 57%. In addition, the remaining activity at 1 µM in assay [14] amounted to 55%; in [15], 89%; in assay [16], 41%; in assay [17], 87%; in [18] it was 93%.
As to `CONC(=O)c1ccccc1Nc1cc(Nc2cc(C)nn2C(C)C)ncc1Cl` [GSK2256098], the IC50 in assay [1] was more than 10 µM. The remaining activity at 1 µM amounted to 98% in assay [2]; 98% in [3]; 103% in assay [4]; 49% in assay [5]; 95% in [6]; 105% in assay [7]. Further, the remaining activity at 1 µM in [8] came out at 107%; in [9] it was 102%; in [10], 94%; in [11] it was 94%; in assay [12], 91%; in assay [13], 84%. Also, the remaining activity at 1 µM in assay [14] is 115%; in [15] it was 67%; in assay [16], 99%; in assay [17], 119%; in assay [18], 101%.

The IC50 is the concentration that gives 50% inhibition.
